These are literature values, as cited in patent publication US20060177524A1, “Ocular irrigating solution” (University of Bristol, priority 1998, published 2006).

Usually pKa stands for the negative logarithm of the acid dissociation constant.

For data set [1], the system named is endothelial Na^+K^+ ATPase. The settings on record: Geroski et al 1982-83, human and rabbit corneas.
For data set [2] the following is noted: at 25° C.

Molecules are shown by their SMILES.

`O=S(=O)(O)CCN1CCN(CCO)CC1` [HEPES, N-2-[hydroxyethyl]piperazine-N′-[2-ethanesulfonic acid]]: the “Toxicity to endothelial Na^+K^+ ATPase” value in data set [1] is “toxic”. On to `O=S(=O)(O)CCCN1CCN(CCO)CC1` [EPPS, N-[2-hydroxyethyl]-piperazine-N′-[3-propanesulfonic acid]], for which the pKa in data set [2] is recorded as 8.0.
